# Results as given in patent publication US9944989B2, “Micrornas as new therapeutic targets for the prevention and/or treatment of retinopathy” (RUSH UNIVERSITY MEDICAL CENTER, priority 2010, dated 2018).
# Columns and labels:
# NF-κB [1] = experiment: miR-146a expression (qRT-PCR) in rat RECs (TR-iBRB2) treated with IL-1β or TNFα, with or without Bay11-7082; format: cell-based; details: for miR-146a expression: rat RECs (TR-iBRB2), 10 ng/ml, four hours and 24 hours after treatment
# Protocol: In diabetic retinas, hyperglycemia-induced increased production of ROS and proinflammatory cytokines work in concert to activate NF-κB in RECs. Both IL-1β and TNF-α are shown to activate NF-κB in RECs. Upregulation of miR-146a is a result of NF-κB activation. Rat RECs (the TR-iBRB2 cells) were treated with IL-1β (10 ng/ml) and TNF-α (10 ng/ml). […] The extent of upregulation of miR-146a was further increased from 4-hour to 24-hour treatments. […] It is noteworthy that there is a moderate, but significant increased expression of miR-146a by IL-1β in the presence of Bay11-7082, compared to non-treated negative controls.
# Quantitative (q)RT-PCR. qRT-PCR analysis of miRNAs was performed using TaqMan microRNA Assays according to the manufacturer's protocol (Applied Biosystems). Approximately 8 ng of total RNA was used for each reaction. snRNA U6 was used for normalization control. qRT-PCR analysis on mRNAs of IRAK1, TRAF6, ICAM-1, and MCP-1 was performed using the QuantiTect Primer Assay with QuantiFast SYBR Green RT-PCR Kit (Qiagen, Valencia, Calif.) ˜10 ng total RNA was used in each reaction. 18S rRNA was amplified as normalization control. All data are expressed as mean±SEM. Student's t-test was used to determine significance (p<0.05).
# (§1) Rat REC culture and treatment with proinflammatory factors. Rat RECs—the Transgenic-inner Blood-Retinal Barrier (Tr-iBRB) cells were kindly provided by Drs. Tetsuya Terasaki, Tohoku University, and Ken-ichi Hosoya, University of Toyama, Japan. The Tr-iBRB cells were derived from RECs of transgenic rats harboring the temperature-sensitive SV40 large T-antigen (tsA58Tg rats). At 33° C., they are immortalized and proliferate because of the expression of large T-antigen. At 37° C., they stop proliferation due to loss of large T-antigen and differentiate into authentic retinal ECs, which have spindle fiber shapes, with typical endothelial and REC-specific markers and endothelial properties and REC-specific functions. iTr-iBRB cells were expanded at 33° C. on collagen-coated (50 μg/ml) plates in complete EC culture medium (DMEM with 70 mg/L benzylpenicillin potassium, 100 mg/L streptomycin sulfate, 10% heat-inactivated FBS and endothelial-cell growth factor (ECGF) (1:100, Sigma). Glucose concentration in the medium was 5.5 mM. Approximately 100,000 cells/60 mm plate were grown in complete medium at 37° C. for 48 hours. Cells were serum starved in DMEM+0.2% FBS for 16 hours before treatment of IL-1β (10 ng/ml, Sigma), TNFα (10 ng/ml, Sigma), or NF-κB inhibitor, Bay11-7082 (3 μM. Calbiochem) for 4 or 24 hours. Subsequently, the cells were harvested for total RNA, protein lysate preparation, or immunofluorescence.
# NF-κB p65 = experiment: NF-κB activation by immunofluorescence of p65 subunit in rat RECs; format: cell-based; details: IL-1β or TNFα 10 ng/ml, 30 minutes after treatment
# Protocol: as §1
# Detection of NF-κB activation by immunofluorescence of p65 subunit. 30 min following cytokine treatment, cells were fixed with 4% paraformaldehyde for 20 min. After blocking with 10% normal donkey serum (NDS) in PBS for 1 hour at room temperature, cells were incubated with anti-p65 antibody (Santa Cruz) at 4° C. overnight. Cells were incubated in Alexa fluor-conjugated secondary antibody (1:400) in 3% NDS. Nuclei of the cells were labeled with Hoechst nuclear dye (1:500). Subsequently, the cells were observed under an Axioplan2 fluorescent microscope (Zeiss).
# HRECs = experiment: Leukocyte adhesion to HRECs; format: cell-based, human; details: scrambled control-treated HRECs, thrombin treatment
# Protocol: Leukocyte adhesion to HRECs. Leukocyte adhesion assays were performed (Huang et al., 2007; O'Donnell, 2011) with minor modifications. Briefly, blood from healthy human volunteers was collected according to a approved IRB protocol to isolate leukocytes. Leukocytes were labeled with 5 μM Calcein/acetomethoxy (AM) (Invitrogen). HRECs were transfected with miR-146a mimics or negative control oligo duplex with scrambled sequences for 48 hours before thrombin treatment (5 U/ml). Eight hours after thrombin treatment, 10^5 calcein-labeled leukocytes were added onto the HREC monolayer and incubated for 2 hours at 37 C. Subsequently, the cells were gently rinsed with PBS to wash off leukocytes unattached to HRECs; the number of Calcein-AM labeled neutrophils attached to HRECs were counted by fluorescence microscopy. In addition, the fluorescence from the adherent leukocytes on HRECs was measured with a Cytofluor plate reader (PreSeptive Biosystems).
# NF-κB activation = experiment: Thrombin-induced NF-κB downstream genes (ICAM-1, VCAM-1, MCP1) by qRT-PCR in HRECs; format: cell-based, human; details: thrombin treatment
# Protocol: Thrombin-dependent NF-κB activation is mediated by the CARD10-Bc110-MALT1 signalosome. If miR-146 targets CARD10, one of the key components of the signalosome of the GPCR-mediated NF-κB activation pathway, miR-146 should have an inhibitory effect on GPCR-mediated NF-κB activation in HRECs. HRECs were transfected with miR-146a mimic or negative control oligos with scrambled sequences; 24 hour after the transfection, the cells were treated with thrombin.
# To determine whether miR-146's inhibition on thrombin-mediated NF-κB activation is mediated by its repression on CARD10, HRECs were transfected with human CARD10-expressing constructs (Genecopoeia) before miR-146a mimic transfection and thrombin treatment.
# (§2) Cell culture and treatment. Primary Human Retinal Endothelial Cells (HRECs) (Passage 3-6) and HEK293 cells were purchased from Applied Cell Biology Res Institute (Kirkland, Wash.) and American Type Culture Collection (ATCC), respectively. HRECs were maintained in EGM2-MV media with 5% of FBS (Lonza) in flasks coated with attachment factor (Invitrogen) or plates coated with fibronectin (Sigma). For thrombin treatment, HRECs were serum starved in EGM2-MV media with 1% FBS overnight, and then treated with thrombin (5 U/ml) (Sigma. Cat. T4393) for 5-8 hours, followed by RNA harvesting, leukocyte adhesion and other assays; for IL-1β treatment, after overnight serum starvation, HRECs was incubated with 10 ng/ml IL-1β (Sigma) for 4 hours. When NF-κB specific inhibitor Bay11-7082 was used, HRECs was incubated with Bay11-7082 (3 μM) (Sigma) for 30 minutes prior to treatment with either thrombin or IL-1β.
# miR-146a mimic, anti-miR-146a and plasmid transfection. […]
# RNA preparation and quantitative RT-PCR. Total RNA was prepared using miRVana miRNA isolation kit (Ambion) (Kovacs et al., 2011). qRT-PCR of miRNAs was performed using TaqMan microRNA Assays (Applied Biosystems), with snRNA U6 as normalization control. qRT-PCR of mRNAs of was performed using QuantiTect Primer Assays and QuantiFast SYBR Green RT-PCR Kit (Qiagen), with 18s rRNA as normalization control. […]
# NF-κB [2] = experiment: Thrombin-induced miR-146a/b expression (qRT-PCR) in HRECs, with or without Bay11-7082; format: cell-based, human
# From the text: miR-146 is a NF-κB-responsive miRNA, and can be induced by IL-1R/TLR mediated NF-κB activation. GPCR-mediated NF-κB activation also induces the expression of miR-146.
# Upregulation of miR-146a/b by thrombin treatment is a result of NF-κB activation.
# as §2
# RNA preparation and quantitative RT-PCR. Total RNA was prepared using miRVana miRNA isolation kit (Ambion) (Kovacs et al., 2011). qRT-PCR of miRNAs was performed using TaqMan microRNA Assays (Applied Biosystems), with snRNA U6 as normalization control. qRT-PCR of mRNAs of was performed using QuantiTect Primer Assays and QuantiFast SYBR Green RT-PCR Kit (Qiagen), with 18s rRNA as normalization control. Two tailed t test was used to determine significance of differences.
# miRNAs in the vitreous = experiment: miRNA expression profiling (TaqMan rodent miRNA microarray) of the vitreous of STZ-induced diabetic and normal control rats; design: species or system rat; details: two weeks after the onset of diabetes, average delta Ct
# Protocol: Isolation of vitreous RNA from STZ-induced diabetic and normal control rats: 2 weeks after STZ-induced diabetes, 3 diabetic and 3 normal control rats were sacrificed and their eyeballs harvested. In cold PBS, the eyeballs were dissected to collect the vitreous bodies, the retinas and the lens, total RNA was prepared using the mirVana miRNA isolation kit (Ambion). The yield of total RNA from vitreous body was ˜764 ng and 1125 ng total RNA/vitreous of control and diabetic rats, respectively. […]
# miRNA microarray assays and data analyses. […] Three independent sets of miRNA profiling were performed for each experimental condition Amplification data were created by the SDS2.3 program (Applied Biosystems) and further analyzed using RQ Manager software (Applied Biosystems) and StatMiner v. […] There were three replicate assays for each miRNA on the array. miRNAs with Ct<40 in at least two out of the three replicates were accepted as “detected”. […] Normalized expression level of each miRNA was calculated as DCt or ΔCt=Ct(miRNA)-Ct(snRNA U6). The average DCt from three microarray assays was calculated as the relative expression level of each miRNA. The differential expression of each miRNA from samples of diabetic rats and normal controls was calculated as: DDCt or Δ(ΔCt)=Ave DCt (diabetic)—Ave DCt (control). Fold of change was calculated as 2^−Δ(ΔCt). […]
# [3] = tested on: human retinal endothelial cells (HRECs); experiment: Transendothelial electrical resistance (TEER) assay in HRECs; format: cell-based
# Protocol: Transendothelial electrical resistance assay: ECs are grown as a monolayer on small gold electrodes. The transendothelial electrical resistance, which reflects endothelial barrier function and permeability, is measured using the Electric Cell-Substrate Impedance Sensor (ECIS) system.
# Transendothelial electrical resistance (TEER) assay. HRECs were plated and grew as a monolayer on fibronectin-coated Electric Cell-Substrate Impedance Sensor (ECIS) electrode arrays (Applied Biophysics). 24 hours after transfection with miR-146a mimics, or negative control oligo duplex with scrambled sequences, the cells were treated with IL-1β (10 ng/ml). TEER was recorded for 20 hours before and 24 hours after addition of IL-1β using the ECIS system (Applied Biophysics) (Qiao et al., 2003, 2006; Lum et al., 2003, 2001). When Bay11-7082 was used, HRECs was incubated with Bay11-7082 ([…]) (Sigma) for 30 minutes prior to IL-1β treatment.
# [4] = HRECs treated with scrambled oligo
# [5] = Bay11-7082 3 μM for 30 minutes prior to thrombin
compound,measurement,setting,value
TNF-α,miR-146a expression,NF-κB [1],significantly upregulated
same,NF-κB activation (nuclear translocation of p65),NF-κB p65,activated NF-κb
thrombin,leukocyte adhesion,HRECs,significantly increased
same,induction of ICAM-1,NF-κB activation; [4],~17 fold
same,induction of VCAM-1,NF-κB activation; [4],~95 fold
same,"NF-κB downstream genes ICAM1, MCP1 and VCAM1",NF-κB activation; HRECs,significantly upregulated
same,upregulation of miR-146a,NF-κB [2]; thrombin treatment,122%
same,upregulation of miR-146b,NF-κB [2]; thrombin treatment,92%
mmu-miR-30c (UGUAAACAUCCUACACUCUCAGC; chemistry not fully specified),AVE DCt (STZ),miRNAs in the vitreous,2.37
IL-1β: proinflammatory cytokine used at 10 ng/ml to activate NF-κB,miR-146a expression,NF-κB [1],significantly upregulated
same,TEER,[3]; IL-1β treatment,significant decrease
same,NF-κB activation (nuclear translocation of p65),NF-κB p65,activated NF-κb
Cc1ccc(S(=O)(=O)/C=C/C#N)cc1 [Bay11-7082],decrease of IL-1β-induced upregulation of miR-146a,"NF-κB [1]; rat RECs, IL-1β 10 ng/ml, simultaneous Bay11-7082",~81%
same,TNF-α-induced upregulation of miR-146a,"NF-κB [1]; rat RECs, TNF-α 10 ng/ml, simultaneous Bay11-7082",completely blocked
same,IL-1β-induced decrease of TEER,[3]; IL-1β 10 ng/ml,prevented
same,NF-κB activation (nuclear translocation of p65),NF-κB p65,failed to activate NF-κB
same,inhibition of thrombin-induced miR-146b upregulation,NF-κB [2]; [5],at least 33%
same,thrombin-induced upregulation of miR-146a,NF-κB [2]; [5],completely blocked
